Common to all, as to test: Kinetic parameters from progress curves, p-nitroanilide substrates
Holding throughout (type): biochemical
What all share (conditions): 25° C., 0.1M tris buffer, pH 8.6

Assay [1] deals with T1, B. amyloliquefaciens subtilisin variant asn+166 (glycine+166 to asn) (Bacillus amyloliquefaciens, UniProt P00782, G273N).
T1 construct: codons for the mature subtilisin corresponding to that secreted by the B. amyloliquefaciens; made in house; host or cells: B. subtilis BG2036
As to the method:
(§1) B. subtilis strain BG2036 obtained by the method of Example 11 was transformed by the plasmids of Examples 14, 15 or 20 and by pS4-5 as a control. Transformants were plated or cultured in shaker flasks for 16 to 48 h at 37° C. in LB media plus 12.5 μg/ml chloramphenicol. Mutant enzymatically active subtilisin was recovered by dialyzing cell broth against 0.01M sodium phosphate buffer, pH 6.2. The dialyzed broth was then titrated to pH 6.2 with 1N HCl and loaded on a 2.5×2 cm column of CM Cellulose (CM-52 Whatman). After washing with 0.01M sodium phosphate, pH 6.2, the subtilisins (except mutants at position +222) were eluted with the same buffer made 0.08N in NaCl. The mutant subtilisins at position +222 were each eluted with 0.1M sodium phosphate, pH 7.0. The purified mutant and wild type enzymes were then used in studies of oxidation stability, Km, Kcat, Kcat/Km ratio, pH optimum, and changes in substrate specificity.
(§2) Various mutants for glycine+166 were screened for modified Kcat, Km and Kcat/Km ratios. Kinetic parameters were obtained by analysis of the progress curves of the reactions. The rate of reaction was measured as a function of substrate concentration. Data was analyzed by fitting to the Michaelis-Menton equation using the non-linear regression algorithm of Marquardt (Marquardt, D. W. 1963, "J. Soc. Ind. Appl. Math." 11, 431-41).

In assay [2] the target is T2, B. amyloliquefaciens subtilisin variant asp+166 (D166; glycine+166 to asp) (Bacillus amyloliquefaciens, UniProt P00782, G273D).
T2 construct: codons for the mature subtilisin corresponding to that secreted by the B. amyloliquefaciens; made in house; host or cells: B. subtilis BG2036
T2 sequence (P00782 108-382 G273D): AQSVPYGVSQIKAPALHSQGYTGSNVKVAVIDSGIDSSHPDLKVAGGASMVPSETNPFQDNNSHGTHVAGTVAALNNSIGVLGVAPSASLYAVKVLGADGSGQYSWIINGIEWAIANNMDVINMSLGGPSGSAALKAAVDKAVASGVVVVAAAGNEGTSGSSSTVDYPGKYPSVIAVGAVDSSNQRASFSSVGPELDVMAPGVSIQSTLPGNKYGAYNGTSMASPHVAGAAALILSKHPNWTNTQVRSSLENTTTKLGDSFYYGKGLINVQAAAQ
As to the method:
as §1, §2

Assay [3] concerns the target T3, B. amyloliquefaciens subtilisin variant glu+166 (E166; glycine+166 to glu) (Bacillus amyloliquefaciens, UniProt P00782, G273E).
T3 construct: codons for the mature subtilisin corresponding to that secreted by the B. amyloliquefaciens; made in house; host or cells: B. subtilis BG2036
As to the method: as §1, §2

For assay [4], the target named is T4, B. amyloliquefaciens subtilisin, wild type (gly-166) (Bacillus amyloliquefaciens, UniProt P00782).
T4 construct: codons for the mature subtilisin corresponding to that secreted by the B. amyloliquefaciens; made in house; host or cells: B. subtilis BG2036 (transformed with pS4-5)
T4 sequence (P00782 108-382): as the sequence (P00782 108-382 G273D) above, with D166G counted along it
As to the method:
as §1, §2

For assay [5], the target named is T5, B. amyloliquefaciens subtilisin variant ala+166 (A166; glycine+166 to ala) (Bacillus amyloliquefaciens, UniProt P00782, G273A).
T5 construct: codons for the mature subtilisin corresponding to that secreted by the B. amyloliquefaciens; made in house; host or cells: B. subtilis BG2036
T5 sequence (P00782 108-382 G273A): as the sequence (P00782 108-382 G273D) above, with D166A counted along it
As to the method:
as §1, §2

For assay [6], the target named is T6, B. amyloliquefaciens subtilisin variant arg+166 (glycine+166 to arg) (Bacillus amyloliquefaciens, UniProt P00782, G273R).
T6 construct: codons for the mature subtilisin corresponding to that secreted by the B. amyloliquefaciens; made in house; host or cells: B. subtilis BG2036
T6 sequence (P00782 108-382 G273R): as the sequence (P00782 108-382 G273D) above, with D166R counted along it
How it is done:
as §1, §2

Assay [7] addresses T7, B. amyloliquefaciens subtilisin variant hys+166 (glycine+166 to his) (Bacillus amyloliquefaciens, UniProt P00782, G273H).
T7 construct: codons for the mature subtilisin corresponding to that secreted by the B. amyloliquefaciens; made in house; host or cells: B. subtilis BG2036
How it is done: as §1, §2

The target in assay [8] is T8, B. amyloliquefaciens subtilisin variant lys+166 (glycine+166 to lys) (Bacillus amyloliquefaciens, UniProt P00782, G273K).
T8 construct: codons for the mature subtilisin corresponding to that secreted by the B. amyloliquefaciens; made in house; host or cells: B. subtilis BG2036
T8 sequence (P00782 108-382 G273K): as the sequence (P00782 108-382 G273D) above, with D166K counted along it
How it is done: as §1, §2

Assay [9] has as its target T9, B. amyloliquefaciens subtilisin variant phe+166 (glycine+166 to phe) (Bacillus amyloliquefaciens, UniProt P00782, G273F).
T9 construct: codons for the mature subtilisin corresponding to that secreted by the B. amyloliquefaciens; made in house; host or cells: B. subtilis BG2036
As to the method: as §1, §2

*1 amine or outer side, *2 acyl side, *3 side chain or, on linkers, in order; H or OH if unused. Where a SMILES comes first, the peptide text is derived from it. The star is where a group is joined. pNA = O=[N+]([O-])c1ccc(N*)cc1; Suc = O=C(CCC(=O)[*:2])[*:1]; Bz = O=C(c1ccccc1)*

T3 sequence (P00782 108-382 G273E): as the sequence (P00782 108-382 G273D) above, with D166E counted along it
T9 sequence (P00782 108-382 G273F): as the sequence (P00782 108-382 G273D) above, with D166F counted along it
T1 sequence (P00782 108-382 G273N): as the sequence (P00782 108-382 G273D) above, with D166N counted along it
T7 sequence (P00782 108-382 G273H): as the sequence (P00782 108-382 G273D) above, with D166H counted along it

For the molecule `CC(C)[C@H](NC(=O)c1ccccc1)C(=O)NCC(=O)N[C@@H](CCCNC(=N)N)C(=O)Nc1ccc([N+](=O)[O-])cc1` [BVGRpN, benzoyl-L-Valyl-Glycyl-L-Arginyl-p-nitroanilide] (Bz-Val-Gly-Arg-pNA), the Michaelis-Menten constant (Km) amounted to 120 µM in [1], 41 µM in assay [2], 27 µM in [3] and 1100 µM in assay [4]. Further, the Kcat in assay [2] and in assay [3] was 2 s⁻¹ in each case.

For the molecule `C[C@H](NC(=O)CCC(=O)O)C(=O)N[C@@H](C)C(=O)N1CCC[C@H]1C(=O)N[C@@H](Cc1ccccc1)C(=O)Nc1ccc([N+](=O)[O-])cc1` [sAAPFpN, succinyl-L-Alanyl-L-Alanyl-L-Prolyl-L-Phenylalanyl-p-nitro-anilide] (Suc-AAPF-pNA), the Km in [5] worked out at 27 µM; in assay [6], 62 µM; in assay [1] it was 140 µM; in assay [2] it was 580 µM; in [3], 340 µM; in [7] it was 110 µM. The Michaelis constant (Km) in [8] worked out at 34 µM; in [9] it was 14 µM; in assay [4], 140 µM. In assay [9], the Kcat turned out to be 3 s⁻¹.

For the origin of these results see patent publication US5310675A, “Procaryotic carbonyl hydrolases” (priority 1991, dated 1994).
